According to patent US10995068B2, “Synthetic sphingolipid-like molecules, drugs, methods of their synthesis and methods of treatment” (The Regents of the University of California, priority 2015, dated 2021):

System: autochthonous prostate tumor (pDKO)
Experiment: pDKO autochthonous prostate cancer mouse model
Format: in vivo
Protocol: To determine the sensitivity, SH-BC-893 was evaluated in a validated genetically-engineered mouse model for invasive castration-resistant prostate cancer that lacks p53 and PTEN expression exclusively in the prostate (pDKO) (Wu X, et al. Am J Clin Exp Urol. 2014; 2(2):111-20; Schwarzenböck S, et al. Theranostics. 2012; 2(3):318-330; Chen Z, et al. Nature. 2005; 436(7051):725-730; the disclosures of which are herein incorporated by reference). […] SH-BC-893, however, still produced a phenotype consistent with starvation as the bound NADH fraction increased and cell permeant nutrients protected mPCE cells from death (FIGS. 65A and 65C). Prostate cancer cells depend on exogenous LDL for growth and survival. […] Ceramide and YM201636 both reduced surface LDLr levels, but LDLr still accumulated in different intracellular compartments (FIG. 66A). Consistent with their ability to block lysosomal fusion (FIG. 61), both YM201636 and SH-BC-893 reduced LDL co-localization with Lysotracker Blue (FIGS. 65F and 65G). In keeping with the inhibition of LDL degradation in lysosomes, cellular lipid droplet content was inversely correlated with the extent of vacuolation (FIG. 66B). In summary, sphingolipid-like compounds, such as SH-BC-893, starve slow-growing neoplasms, such prostate cancer, by down-regulating nutrient transporters and blocking lysosomal nutrient generation.
The ability of starvation-inducing sphingolipid-like drugs to affect the growth of slow growing or autochthonous neoplasms was also evaluated. In C57BL/6 mice bearing mPCE subcutaneous isografts, 60 mg/kg SH-BC-893 was given daily by gavage and slowed tumor growth by 60% similar to results with SW620 xenografts dosed with 20 mg/kg i.p. (FIGS. 53G-I and 65I). At 120 mg/kg, SH-BC-893 inhibited prostate tumor growth by more than 90% (FIG. 65I). […] Akt activity was slightly elevated by SH-BC-893 consistent with loss of TORC1-mediated negative feedback. Thus, sphingolipid-like compounds, such as SH-BC-893, are effective against neoplasms with distinct molecular defects and metabolic characteristics.
SH-BC-893 produces equivalent transporter loss and vacuolation in normal and transformed cells and therefore also limits the access of normal cells to nutrients (FIGS. 51C, 51E, 56B and 56C). […] The lack of toxicity to normal tissues is consistent with the finding that non-transformed cells can adapt to nutrient stress that triggers a bioenergetic crisis in less metabolically flexible tumor cells (FIGS. 53D and 53E).
In vivo studies. Experiments conducted in mice were performed in accordance with the Institutional Animal Care and Use Committee of University of California, Irvine following a power analysis conducted in consultation with the Biostatistics Shared Resource of Chao Family Comprehensive Cancer Center at UCI. Xenografts were produced by injecting 5 million cells subcutaneously in the flank of 10-16 week-old male or female NSG mice. Prostate isografts were produced in the same manner but in male 6-8 wk old C57BL/6 mice. Once tumors reached 100 mm^3, SH-BC-893 was administered by intraperitoneal (i.p.) injection or oral gavage as indicated. Tumor volume was calculated using the formula, volume (mm^3)=length [mm]×(width [mm])^2×0.52; BLI was measured using an IVIS imaging system (Xenogen). To generate pDKO mice on the C57BL6 background, Pten^flox mice (stock No. 0045597) and p53^flox mice (stock No. 008462) were obtained from the Jackson Laboratory and PB-Cre4 mice (strain #01XF5) were obtained from the NCI-Frederick Mouse Repository. Age-matched cohorts of pDKO males were generated by in vitro fertilization executed with the assistance of the Transgenic Mouse Facility at UC Irvine. Treatment was begun at 6-7 wks of age. […] Tumor samples were processed and imaged by the Pathology Research Services Core Facility at UC Irvine. Blood chemistry was analyzed by IDEXX BioResearch and complete blood counts were performed using a Hemavet hematology system.

SMILES: CCCCCCCCc1ccc([C@H]2CCN[C@@H]2CO)cc1.Cl [Compound 5, (2S,3R)-2-(hydroxymethyl)-3-(4-octylphenyl)Pyrrolidinium chloride]
- histopathology of intestinal crypts (mice treated with 120 mg/kg for 11 weeks): normal
- weight gain (pDKO mice): gained less weight than untreated mice
- decrease of autochthonous tumor growth (pDKO mice, 60 mg/kg): 62%
- decrease of autochthonous tumor growth (pDKO mice, 120 mg/kg): 82%
- prostate tumor progression, histology (pDKO mice, treated mice exclusively exhibited prostatic intraepithelial neoplasia): slowed prostate tumor progression
- TORC1-dependent ribosomal protein S6 phosphorylation in tumors (treated prostate tumors): reduced
